# Results from patent US8383618B2, “C2-fluoro substituted piperazine linked pyrrolo[2,1-C][1,4] benzodiazepine dimers and a process for the preparation thereof” (Council of Scientific & Industrial Research, priority 2008, dated 2013).
# Key:
# [1] = test system: calf thymus (CT) DNA; assay: Thermal denaturation studies; format: binding; details: [PBD]:[DNA] molar ratio 1:5; CT-DNA 100 μM, ligand 20 μM; sodium phosphate buffer pH 7.00
# Method: The DNA binding affinity of the C2-Fluoro substituted piperazine linked pyrrolo[2,1c][1,4]benzodiazepine dimers were subjected to thermal denaturation studies using calf thymus (CT) DNA (Jones, G. B.; Davey, C. L.; Jenkins, T. C.; Kamal, A.; Kneale, G. G.; Neidle, S.; Webster, G. D.; Thurston, D. E. Anti-cancer Drug Des. 1990, 5, 249. McConnaughie, A. W.; Jenkins, T. C. J. Med. Chem. 1995, 38, 3488). The studies for these compounds (IXa-f) were carried out by DNA/ligand molar ratio is 1:5 the increase in the helix melting temperature (ΔTm) for each compound was examined at 0 h. […] Data for DSB-120 and SJG-136 are included in Table-3 for comparison. The synthetic DC-81 dimer (DSB-120) gives a ΔTm 10.2° C. and SJC-136 gives a […]Tm of 25° C. under identical experimental condition.
# [2] = test system: DU-145; assay: NCI in vitro anticancer screen (SRB); format: cell-based, human; details: Prostate, 48 h exposure
# Method: (§1) The above compounds were evaluated for in vitro anticancer activity against sixty human tumor cells derived from nine cancer types (leukemia, non small cell cancer, colon cancer CNS cancer, melanoma, ovarian cancer renal cancer, prostate cancer and breast cancer) as per NCI protocol. For each compound, dose response curves for each cell line were measured at a minimum of five concentrations at 10-fold dilution. A protocol of 48 h continuous drug exposure was used, and a sulforhodamine B (SRB) protein assay was used to estimate cell viability or growth. The concentration causing 50% cell growth inhibition (GI50), total cell growth inhibition (TGI, 0% growth) and 50% cell death (LC-50% growth) compared with the control was calculated.
# [3] = test system: CCRF-CEM; assay: NCI in vitro anticancer screen (SRB); format: cell-based, human; details: Leukemia, 48 h exposure
# Method: as §1
# [4] = test system: HCT-116; assay: NCI in vitro anticancer screen (SRB); format: cell-based, human; details: Colon, 48 h exposure
# Method: as §1
# [5] = test system: K-562; assay: NCI in vitro anticancer screen (SRB); format: cell-based, human; details: Leukemia, 48 h exposure
# Method: as §1
# [6] = test system: M14; assay: NCI in vitro anticancer screen (SRB); format: cell-based, human; details: Melanoma, 48 h exposure
# Method: as §1
# [7] = test system: SW-620; assay: NCI in vitro anticancer screen (SRB); format: cell-based, human; details: Colon, 48 h exposure
# Method: as §1
# [8] = test system: LOX IMVI; assay: NCI in vitro anticancer screen (SRB); format: cell-based, human; details: Melanoma, 48 h exposure
# Method: as §1
# [9] = test system: IGROV1; assay: NCI in vitro anticancer screen (SRB); format: cell-based, human; details: Ovarian, 48 h exposure
# Method: as §1
# [10] = test system: SK-MEL-5; assay: NCI in vitro anticancer screen (SRB); format: cell-based, human; details: Melanoma, 48 h exposure
# Method: as §1
# [11] = test system: SK-MEL-28; assay: NCI in vitro anticancer screen (SRB); format: cell-based, human; details: Melanoma, 48 h exposure
# Method: as §1
# [12] = test system: PC-3; assay: NCI in vitro anticancer screen (SRB); format: cell-based, human; details: Prostate, 48 h exposure
# Method: as §1
# [13] = test system: CAKI-1; assay: NCI in vitro anticancer screen (SRB); format: cell-based, human; details: Renal, 48 h exposure
# Method: as §1
# [14] = test system: SF-539; assay: NCI in vitro anticancer screen (SRB); format: cell-based, human; details: CNS, 48 h exposure
# Method: as §1
# [15] = test system: RPMI-8226; assay: NCI in vitro anticancer screen (SRB); format: cell-based, human; details: Leukemia, 48 h exposure
# Method: as §1
# [16] = test system: SN12C; assay: NCI in vitro anticancer screen (SRB); format: cell-based, human; details: Renal, 48 h exposure
# Method: as §1
# [17] = test system: COLO 205; assay: NCI in vitro anticancer screen (SRB); format: cell-based, human; details: Colon, 48 h exposure
# Method: as §1
# [18] = test system: BT-549; assay: NCI in vitro anticancer screen (SRB); format: cell-based, human; details: Breast, 48 h exposure
# Method: as §1
# [19] = test system: NCI-H23; assay: NCI in vitro anticancer screen (SRB); format: cell-based, human; details: Non-small cell lung, 48 h exposure
# Method: as §1
# [20] = test system: SNB-19; assay: NCI in vitro anticancer screen (SRB); format: cell-based, human; details: CNS, 48 h exposure
# Method: as §1
# [21] = test system: SR; assay: NCI in vitro anticancer screen (SRB); format: cell-based, human; details: Leukemia, 48 h exposure
# Method: as §1
# [22] = test system: MDA-MB-468; assay: NCI in vitro anticancer screen (SRB); format: cell-based, human; details: Breast, 48 h exposure
# Method: as §1
# [23] = test system: SNB-75; assay: NCI in vitro anticancer screen (SRB); format: cell-based, human; details: CNS, 48 h exposure
# Method: as §1
# [24] = test system: SK-OV-3; assay: NCI in vitro anticancer screen (SRB); format: cell-based, human; details: Ovarian, 48 h exposure
# Method: as §1
# [25] = test system: MCF7; assay: NCI in vitro anticancer screen (SRB); format: cell-based, human; details: Breast, 48 h exposure
# Method: as §1
# [26] = test system: SF-268; assay: NCI in vitro anticancer screen (SRB); format: cell-based, human; details: CNS, 48 h exposure
# Method: as §1
# [27] = test system: MOLT-4; assay: NCI in vitro anticancer screen (SRB); format: cell-based, human; details: Leukemia, 48 h exposure
# Method: as §1
# [28] = test system: HOP-62; assay: NCI in vitro anticancer screen (SRB); format: cell-based, human; details: Non-small cell lung, 48 h exposure
# Method: as §1
# [29] = test system: HL-60(TB); assay: NCI in vitro anticancer screen (SRB); format: cell-based, human; details: Leukemia, 48 h exposure
# Method: as §1
# [30] = test system: SK-MEL-2; assay: NCI in vitro anticancer screen (SRB); format: cell-based, human; details: Melanoma, 48 h exposure
# Method: as §1
# [31] = test system: UACC-62; assay: NCI in vitro anticancer screen (SRB); format: cell-based, human; details: Melanoma, 48 h exposure
# Method: as §1
# [32] = test system: A498; assay: NCI in vitro anticancer screen (SRB); format: cell-based, human; details: Renal, 48 h exposure
# Method: as §1
# [33] = test system: HS 578T; assay: NCI in vitro anticancer screen (SRB); format: cell-based, human; details: Breast, 48 h exposure
# Method: as §1
# [34] = test system: HOP-92; assay: NCI in vitro anticancer screen (SRB); format: cell-based, human; details: Non-small cell lung, 48 h exposure
# Method: as §1
# [35] = test system: MDA-MB-435; assay: NCI in vitro anticancer screen (SRB); format: cell-based, human; details: Breast, 48 h exposure
# Method: as §1
# [36] = test system: MALME-3M; assay: NCI in vitro anticancer screen (SRB); format: cell-based, human; details: Melanoma, 48 h exposure
# Method: as §1
# [37] = test system: 786-0; assay: NCI in vitro anticancer screen (SRB); format: cell-based, human; details: Renal, 48 h exposure
# Method: as §1
# [38] = test system: U251; assay: NCI in vitro anticancer screen (SRB); format: cell-based, human; details: CNS, 48 h exposure
# Method: as §1
# [39] = test system: T-47D; assay: NCI in vitro anticancer screen (SRB); format: cell-based, human; details: Breast, 48 h exposure
# Method: as §1
# [40] = test system: OVCAR-3; assay: NCI in vitro anticancer screen (SRB); format: cell-based, human; details: Ovarian, 48 h exposure
# Method: as §1
# [41] = test system: NCI-H460; assay: NCI in vitro anticancer screen (SRB); format: cell-based, human; details: Non-small cell lung, 48 h exposure
# Method: as §1
# [42] = test system: NCI-H522; assay: NCI in vitro anticancer screen (SRB); format: cell-based, human; details: Non-small cell lung, 48 h exposure
# Method: as §1
# [43] = test system: sixty human tumor cells derived from nine cancer types; assay: NCI in vitro anticancer screen (SRB), whole panel; format: cell-based
# Method: as §1
# [44] = human tumor cell lines, 48 h drug exposure, SRB
compound,measurement,setting,value
"1,1′-{[(bisbutane-1,N-diyl)piperazine]dioxy}bis[(11aS)-2-fluoro-7-methoxy-1,2,3,11a-tetrahydro-5H-pyrrolo[2,1-c][1,4]benzodiazepine-5-one] [IXb]",ΔTm after incubation at 37° C. for 0 h,[1],38.0 °C
"1,1′-{[(bispentane-1,N-diyl)piperazine]dioxy}bis[(11aS)-2-fluoro-7-methoxy-1,2,3,11a-tetrahydro-5H-pyrrolo[2,1-c][1,4]benzodiazepine-5-one] [IXc]",ΔTm after incubation at 37° C. for 0 h,[1],37.0 °C
"COc1cc2c(cc1OCCCN1CCN(CCCOc3cc4c(cc3OC)C(=O)N3CC(F)C[C@H]3C=N4)CC1)N=C[C@@H]1CC(F)CN1C2=O (stereo partly drawn) [Compound IXa, 1,1′-{[(bispropane-1,N-diyl)piperazine]dioxy}bis[(11aS)-2-fluoro-7-methoxy-1,2,3,11a-tetrahydro-5H-pyrrolo[2,1-c][1,4]benzodiazepine-5-one]]",ΔTm after incubation at 37° C. for 0 h,[1],37.0 °C
same,GI50,[2],47 nM
same,GI50,[3],10 nM
same,GI50,[4],28 nM
same,GI50,[5],15 nM
same,GI50,[6],35 nM
same,GI50,[7],56 nM
same,GI50,[8],17 nM
same,GI50,[9],59 nM
same,GI50,[10],31 nM
same,GI50,[11],31 nM
same,GI50,[11]; listed as IX a,43 nM
same,GI50,[12],15 nM
same,GI50,[13],28 nM
same,GI50,[14],11 nM
same,GI50,[15],22 nM
same,GI50,[16],18 nM
same,GI50,[17],40 nM
same,GI50,[18],95 nM
same,GI50,[19],32 nM
same,GI50,[20],28 nM
same,GI50,[21],10 nM
same,GI50,[22],10 nM
same,GI50,[23],33 nM
same,GI50,[24],70 nM
same,GI50,[25],10 nM
same,GI50,[26],11 nM
same,GI50,[27],10 nM
same,GI50,[28],12 nM
same,GI50,[29],10 nM
same,GI50,[30],43 nM
same,GI50,[31],26 nM
same,GI50,[32],66 nM
same,GI50,[33],48 nM
same,GI50,[34],96 nM
same,GI50,[35],34 nM
same,GI50,[36],24 nM
same,GI50,[37],39 nM
same,GI50,[38],15 nM
same,GI50,[39],13 nM
same,GI50,[40],48 nM
same,GI50,[41],10 nM
same,GI50,[42],10 nM
same,GI50,[43]; against fifty nine cell lines in nine cell panels,< 95 nM
same,Log10 GI50 mean graph midpoint (MG_MID),[43]; [44],−7.28
same,Log10 LC50 mean graph midpoint (MG_MID),[43]; [44],−4.65
same,Log10 TGI mean graph midpoint (MG_MID),[43]; [44],−6.12
"COc1cc2c(cc1OCCCOc1cc3c(cc1OC)C(=O)N1CCC[C@H]1C=N3)N=C[C@@H]1CCCN1C2=O [DSB-120, reference compound]",ΔTm after incubation at 37° C. for 0 h,[1],10.2 °C
